Values quoted from earlier work as cited in publication PMC7510478, “The effect of size, charge, and peptide ligand length on kidney targeting by small, organic nanoparticles” (Bioengineering & Translational Medicine, 2020).

What was measured:
ADPKD patients = test system: ADPKD patients
Source text: Chronic kidney disease (CKD) affects 600 million people globally and is characterized by gradual kidney function decline. ^1 A common form of CKD is autosomal dominant polycystic kidney disease (ADPKD), which affects over 12 million people worldwide and is characterized by renal cyst formation that can result in the need for dialysis or kidney transplant. ^2 , ^3 , ^4 , ^5 Currently, there is no cure for ADPKD and tolvaptan is the only FDA approved treatment for ADPKD. ^6 Despite enthusiasm, tolvaptan has been reported to cause several side effects including polyuria, thirst, nocturia, and dru ...

megalin = test system: megalin; set-up: method as in PMID 27617593, PMID 19202329, PMID 11994745, PMID 9574443
[1] = study of 961 ADPKD patients undergoing tolvaptan treatment

In the case of Cc1ccccc1C(=O)Nc1ccc(C(=O)N2CCCC(O)c3cc(Cl)ccc32)c(C)c1 (stereo not shown) [tolvaptan], the “Patients affected by polyuria” value (ADPKD patients; ADPKD patients on tolvaptan) is listed as 38%, the “Adverse event rate, nocturia” value (ADPKD patients; [1]) is listed as about 29% and the “Adverse event rate, thirst” value (ADPKD patients; [1]) is listed as “approximately 55%”.
In the case of [Lys–Lys–Glu–Glu–Glu]3–Lys [(KKEEE)3K], the “Uptake in megalin‐deficient mice” value (megalin) is listed as “significantly reduced uptake”.
